Results from patent publication US10499640B2, “Herbicidal compounds” (SYNGENTA PARTICIPATIONS AG, priority 2014, dated 2019).

Experiments:
Type in all cases: in vivo
[1] = tested on: Abutilon theophrasti (ABUTH); test: Pre-emergence herbicidal activity, glasshouse pot test; design: key: 5=total damage to plant; 0=no damage to plant; details: Rate 1000 g/Ha; sprayed one day after sowing; evaluated after 13 days; scale 0-5
Description: (§1) Seeds of a variety of test species were sown in standard soil in pots. After cultivation for one day (pre-emergence) under controlled conditions in a glasshouse (at 24/16° C., day/night; 14 hours light; 65% humidity), the plants were sprayed with an aqueous spray solution derived from the formulation of the technical active ingredient in acetone/water (50:50) solution containing 0.5% Tween 20 (polyoxyethelyene sorbitan monolaurate, CAS RN 9005-64-5). The test plants were then grown in a glasshouse under controlled conditions (at 24/16° C., day/night; 14 hours light; 65% humidity) and watered twice daily. After 13 days, the test was evaluated (5=total damage to plant; 0=no damage to plant).

[2] = tested on: Amaranthus retroflexus (AMARE); test: as above; design: key: 5=total damage to plant; 0=no damage to plant; details: Rate 1000 g/Ha; sprayed one day after sowing; evaluated after 13 days; scale 0-5
Description: as §1

[3] = tested on: Echinochloa crus-galli (ECHCG); test: as above; design: key: 5=total damage to plant; 0=no damage to plant; details: Rate 1000 g/Ha; sprayed one day after sowing; evaluated after 13 days; scale 0-5
Description: as §1

Setaria faberi (SETFA) [4] = test: as above; design: key: 5=total damage to plant; 0=no damage to plant; details: Rate 1000 g/Ha; sprayed one day after sowing; evaluated after 13 days; scale 0-5
Description: as §1

Zea mays (ZEAMX) [5] = test: as above; details: Rate 1000 g/Ha; sprayed one day after sowing; evaluated after 13 days; scale 0-5
Description: as §1

[6] = tested on: Abutilon theophrasti (ABUTH); test: Post-emergence herbicidal activity, glasshouse pot test; design: key: 5=total damage to plant; 0=no damage to plant; details: Rate 1000 g/Ha; sprayed after 8 days cultivation; evaluated after 13 days; scale 0-5
Description: (§2) Seeds of a variety of test species were sown in standard soil in pots. After 8 days cultivation (post-emergence) under controlled conditions in a glasshouse (at 24/16° C., day/night; 14 hours light; 65% humidity), the plants were sprayed with an aqueous spray solution derived from the formulation of the technical active ingredient in acetone/water (50:50) solution containing 0.5% Tween 20 (polyoxyethelyene sorbitan monolaurate, CAS RN 9005-64-5). The test plants were then grown in a glasshouse under controlled conditions (at 24/16° C., day/night; 14 hours light; 65% humidity) and watered twice daily. After 13 days, the test was evaluated (5=total damage to plant; 0=no damage to plant).

[7] = tested on: Amaranthus retroflexus (AMARE); test: as above; design: key: 5=total damage to plant; 0=no damage to plant; details: Rate 1000 g/Ha; sprayed after 8 days cultivation; evaluated after 13 days; scale 0-5
Description: as §2

[8] = tested on: Echinochloa crus-galli (ECHCG); test: as above; design: key: 5=total damage to plant; 0=no damage to plant; details: Rate 1000 g/Ha; sprayed after 8 days cultivation; evaluated after 13 days; scale 0-5
Description: as §2

Setaria faberi (SETFA) [9] = test: as above; design: key: 5=total damage to plant; 0=no damage to plant; details: Rate 1000 g/Ha; sprayed after 8 days cultivation; evaluated after 13 days; scale 0-5
Description: as §2

Zea mays (ZEAMX) [10] = test: as above; design: key: 5=total damage to plant; 0=no damage to plant; details: Rate 1000 g/Ha; sprayed after 8 days cultivation; evaluated after 13 days; scale 0-5
Description: as §2

C#CCN1C(=O)N(c2cc(C(C)(C)C)on2)C(O)C1C (single isomer, unassigned) [Compound A22]
ABUTH damage score, application pre-emergence [1]: 5 | AMARE damage score, application pre-emergence [2]: 5 | ECHCG damage score, application pre-emergence [3]: 5 | SETFA damage score, application pre-emergence (Setaria faberi (SETFA) [4]): 5 | ZEAMX damage score, application pre-emergence (Zea mays (ZEAMX) [5]): 3 | ABUTH damage score, application post-emergence [6]: 5 | AMARE damage score, application post-emergence [7]: 5 | ECHCG damage score, application post-emergence [8]: 5 | SETFA damage score, application post-emergence (Setaria faberi (SETFA) [9]): 5 | ZEAMX damage score, application post-emergence (Zea mays (ZEAMX) [10]): 5

COC(C)(C)c1cc(N2C(=O)N(C)CC2O)no1 (stereo not shown) [Compound A9]
ABUTH damage score, application pre-emergence [1]: 5 | AMARE damage score, application pre-emergence [2]: 5 | ECHCG damage score, application pre-emergence [3]: 5 | SETFA damage score, application pre-emergence (Setaria faberi (SETFA) [4]): 5 | ZEAMX damage score, application pre-emergence (Zea mays (ZEAMX) [5]): 3 | ABUTH damage score, application post-emergence [6]: 5 | AMARE damage score, application post-emergence [7]: 5 | ECHCG damage score, application post-emergence [8]: 5 | SETFA damage score, application post-emergence (Setaria faberi (SETFA) [9]): 5 | ZEAMX damage score, application post-emergence (Zea mays (ZEAMX) [10]): 5

COC(C)(C)c1cc(N2C(=O)N(C)C(C)C2O)no1 (stereo not shown) [Compound A10]
ABUTH damage score, application pre-emergence [1]: 5 | AMARE damage score, application pre-emergence [2]: 5 | ECHCG damage score, application pre-emergence [3]: 5 | SETFA damage score, application pre-emergence (Setaria faberi (SETFA) [4]): 5 | ZEAMX damage score, application pre-emergence (Zea mays (ZEAMX) [5]): 3 | ABUTH damage score, application post-emergence [6]: 5 | AMARE damage score, application post-emergence [7]: 5 | ECHCG damage score, application post-emergence [8]: 5 | SETFA damage score, application post-emergence (Setaria faberi (SETFA) [9]): 5 | ZEAMX damage score, application post-emergence (Zea mays (ZEAMX) [10]): 5

CN1CC(O)N(c2cc(C(C)(C)O)on2)C1=O (stereo not shown) [Compound A11]
ABUTH damage score, application pre-emergence [1]: 5 | AMARE damage score, application pre-emergence [2]: 5 | ECHCG damage score, application pre-emergence [3]: 5 | SETFA damage score, application pre-emergence (Setaria faberi (SETFA) [4]): 4 | ZEAMX damage score, application pre-emergence (Zea mays (ZEAMX) [5]): 2 | ABUTH damage score, application post-emergence [6]: 5 | AMARE damage score, application post-emergence [7]: 5 | ECHCG damage score, application post-emergence [8]: 5 | SETFA damage score, application post-emergence (Setaria faberi (SETFA) [9]): 4 | ZEAMX damage score, application post-emergence (Zea mays (ZEAMX) [10]): 3

COC(C)(C)c1cc(N2C(=O)N(C)[C@H](C)C2O)no1 (stereo partly shown) [Compound A12]
ABUTH damage score, application pre-emergence [1]: 5 | AMARE damage score, application pre-emergence [2]: 5 | ECHCG damage score, application pre-emergence [3]: 5 | SETFA damage score, application pre-emergence (Setaria faberi (SETFA) [4]): 5 | ZEAMX damage score, application pre-emergence (Zea mays (ZEAMX) [5]): 3 | ABUTH damage score, application post-emergence [6]: 5 | AMARE damage score, application post-emergence [7]: 5 | ECHCG damage score, application post-emergence [8]: 5 | SETFA damage score, application post-emergence (Setaria faberi (SETFA) [9]): 5 | ZEAMX damage score, application post-emergence (Zea mays (ZEAMX) [10]): 4

CON1C(=O)N(c2cc(C(C)(C)OC)on2)C(O)C1C (stereo not shown) [Compound A13]
ABUTH damage score, application pre-emergence [1]: 5 | AMARE damage score, application pre-emergence [2]: 5 | ECHCG damage score, application pre-emergence [3]: 5 | SETFA damage score, application pre-emergence (Setaria faberi (SETFA) [4]): 5 | ZEAMX damage score, application pre-emergence (Zea mays (ZEAMX) [5]): 2 | ABUTH damage score, application post-emergence [6]: 5 | AMARE damage score, application post-emergence [7]: 5 | ECHCG damage score, application post-emergence [8]: 5 | SETFA damage score, application post-emergence (Setaria faberi (SETFA) [9]): 5 | ZEAMX damage score, application post-emergence (Zea mays (ZEAMX) [10]): 4

CCOC1C(O)N(c2cc(C(C)(C)OC)on2)C(=O)N1C (stereo not shown) [Compound A14]
ABUTH damage score, application pre-emergence [1]: 5 | AMARE damage score, application pre-emergence [2]: 5 | ECHCG damage score, application pre-emergence [3]: 5 | SETFA damage score, application pre-emergence (Setaria faberi (SETFA) [4]): 5 | ZEAMX damage score, application pre-emergence (Zea mays (ZEAMX) [5]): 2 | ABUTH damage score, application post-emergence [6]: 5 | AMARE damage score, application post-emergence [7]: 5 | ECHCG damage score, application post-emergence [8]: 5 | SETFA damage score, application post-emergence (Setaria faberi (SETFA) [9]): 5 | ZEAMX damage score, application post-emergence (Zea mays (ZEAMX) [10]): 4

COCC1C(O)N(c2cc(C(C)(C)OC)on2)C(=O)N1C (stereo not shown) [Compound A15]
ABUTH damage score, application pre-emergence [1]: 5 | AMARE damage score, application pre-emergence [2]: 5 | ECHCG damage score, application pre-emergence [3]: 5 | SETFA damage score, application pre-emergence (Setaria faberi (SETFA) [4]): 5 | ZEAMX damage score, application pre-emergence (Zea mays (ZEAMX) [5]): 2 | ABUTH damage score, application post-emergence [6]: 5 | AMARE damage score, application post-emergence [7]: 5 | ECHCG damage score, application post-emergence [8]: 5 | SETFA damage score, application post-emergence (Setaria faberi (SETFA) [9]): 5 | ZEAMX damage score, application post-emergence (Zea mays (ZEAMX) [10]): 3

CN1CC(O)N(c2cc(C(C)(C)F)no2)C1=O (stereo not shown) [Compound A16]
ABUTH damage score, application pre-emergence [1]: 5 | AMARE damage score, application pre-emergence [2]: 5 | ECHCG damage score, application pre-emergence [3]: 5 | SETFA damage score, application pre-emergence (Setaria faberi (SETFA) [4]): 5 | ZEAMX damage score, application pre-emergence (Zea mays (ZEAMX) [5]): 2 | ABUTH damage score, application post-emergence [6]: 5 | AMARE damage score, application post-emergence [7]: 5 | ECHCG damage score, application post-emergence [8]: 5 | SETFA damage score, application post-emergence (Setaria faberi (SETFA) [9]): 5 | ZEAMX damage score, application post-emergence (Zea mays (ZEAMX) [10]): 5

CC1C(O)N(c2cc(C(C)(C)F)no2)C(=O)N1C (stereo not shown) [Compound A17]
ABUTH damage score, application pre-emergence [1]: 5 | AMARE damage score, application pre-emergence [2]: 5 | ECHCG damage score, application pre-emergence [3]: 5 | SETFA damage score, application pre-emergence (Setaria faberi (SETFA) [4]): 5 | ZEAMX damage score, application pre-emergence (Zea mays (ZEAMX) [5]): 2 | ABUTH damage score, application post-emergence [6]: 5 | AMARE damage score, application post-emergence [7]: 5 | ECHCG damage score, application post-emergence [8]: 5 | SETFA damage score, application post-emergence (Setaria faberi (SETFA) [9]): 5 | ZEAMX damage score, application post-emergence (Zea mays (ZEAMX) [10]): 4

C#CCC1C(O)N(c2cc(C(C)(C)C)on2)C(=O)N1CC#C (stereo not shown) [Compound A23]
ABUTH damage score, application pre-emergence [1]: 5 | AMARE damage score, application pre-emergence [2]: 5 | ECHCG damage score, application pre-emergence [3]: 4 | SETFA damage score, application pre-emergence (Setaria faberi (SETFA) [4]): 5 | ZEAMX damage score, application pre-emergence (Zea mays (ZEAMX) [5]): 2 | ECHCG damage score, application post-emergence [8]: 5

C#CCN1CC(O)N(c2cc(C(C)(C)C)on2)C1=O (stereo not shown) [Compound A24]
ABUTH damage score, application pre-emergence [1]: 5 | AMARE damage score, application pre-emergence [2]: 5 | ECHCG damage score, application pre-emergence [3]: 5 | SETFA damage score, application pre-emergence (Setaria faberi (SETFA) [4]): 5 | ZEAMX damage score, application pre-emergence (Zea mays (ZEAMX) [5]): 3 | ECHCG damage score, application post-emergence [8]: 5
